For test [1], the system named is Rattus norvegicus. In words: Prolactin inhibition ability in Sprague-Dawley rat at 10 ug/ml, ip administered 18 hrs post reserpine treatment measured after 1 hr by RIA. It counts as functional.
In test [2] the test system is Rattus norvegicus. In words: Prolactin inhibition ability in Sprague-Dawley rat at 10 ug/ml, ip administered 18 hrs post reserpine treatment measured after 1 hr by RIA relative to lergotrile. It counts as functional.
In test [3] the test system is Rattus norvegicus. In words: Prolactin stimulation ability in Sprague-Dawley rat at 10 ug/ml, ip administered 18 hrs post reserpine treatment measured after 1 hr by RIA. Type of test: functional, organism-based.
The test system of test [4] is Rattus norvegicus. In words: Prolactin inhibition ability in Sprague-Dawley rat at 10 ug/ml, ip administered 18 hrs post reserpine treatment measured after 1 hr by RIA relative to ergoconine. Type of test: functional.

Consider 12 compounds from ChEMBL document CHEMBL3272091, “Ergot alkaloids. Synthesis of 6-alkyl-8-ergolenes and 6-methyl-8-aminoergolines as potential prolactin inhibitors” (1977).

SMILES strings stand for the structures. Active and inactive are the calls of the source. The rule behind the calls is not given here.

Regarding `CCOC(=O)CN1CC(CO)=C[C@@H]2c3cccc4[nH]cc(c34)C[C@H]21`, the “inhibition (INH)” value in the test on Rattus norvegicus [1] worked out at 14%; with Rattus norvegicus [2], 77%.

With `CCC(=O)N1CC(CO)=C[C@@H]2c3cccc4[nH]cc(c34)C[C@H]21`, in the test on Rattus norvegicus [2], the “inhibition (INH)” value is listed as 77%.

For `OCC1=C[C@@H]2c3cccc4[nH]cc(c34)C[C@H]2N(Cc2ccccc2)C1`, in the test with Rattus norvegicus [2], the “inhibition (INH)” value is given as 60%.

As to `CN1C[C@H](NC(=O)CBr)C[C@@H]2c3cccc4[nH]cc(c34)C[C@H]21`, the inhibition result in the test with Rattus norvegicus [3] was “Active”.

For `CCN1CC(CO)=C[C@@H]2c3cccc4[nH]cc(c34)C[C@H]21`, the “inhibition (INH)” value in the test with Rattus norvegicus [1] is 63%; in the test on Rattus norvegicus [2] it was 77%.

Consider `CCCN1CC(CO)=C[C@@H]2c3cccc4[nH]cc(c34)C[C@H]21`, for which the “inhibition (INH)” value in the test on Rattus norvegicus [1] is listed as 72%; in the test on Rattus norvegicus [2], 77%.

Take `CN1C[C@H](N)C[C@@H]2c3cccc4[nH]cc(c34)C[C@H]21`: the “inhibition (INH)” value in the test on Rattus norvegicus [1] worked out at 57%.

Turning to `CC(=O)N1CC(CO)=C[C@@H]2c3cccc4[nH]cc(c34)C[C@H]21`, the inhibition result in the test on Rattus norvegicus [3] was “Active”.

`CN1CC(CO)=C[C@@H]2c3cccc4[nH]cc(c34)C[C@H]21`: the “inhibition (INH)” value is 75% with Rattus norvegicus [4] and 71% in the test on Rattus norvegicus [1].

Consider `N#CN1CC(CO)=C[C@@H]2c3cccc4[nH]cc(c34)C[C@H]21`, for which the figures for the “inhibition (INH)” value with Rattus norvegicus [4] and with Rattus norvegicus [1] were 67% and 25%, respectively.

As to `OCC1=C[C@@H]2c3cccc4[nH]cc(c34)C[C@H]2NC1`, the entries for the “inhibition (INH)” value in the test on Rattus norvegicus [4] and with Rattus norvegicus [1] were 67% and 58%, respectively.

As for `CN1C[C@H](NC(=O)CCl)C[C@@H]2c3cccc4[nH]cc(c34)C[C@H]21`, in the test on Rattus norvegicus [3], the inhibition entry is “Active”.
